The values that follow are results of earlier work, collected in patent publication US20070243232A1, “Method to treat and prevent asthma attacks using throat lozenges and orally-retained liquids containing magnesium” (priority 2006, published 2007).

For this data set the following is noted: injections in the 200 mg range.

Turning to `O=S(=O)([O-])[O-].[Mg+2]` [magnesium sulfate], the “efficacy in treating asthma and effecting a rescue” value is “modestly effective”.
